Experimental findings from patent US7723372B2, “Spiroindolinone derivatives” (Hoffman-La Roche Inc., priority 2008, dated 2010) are described below.

The target in the assay is interaction between p53 and MDM2 proteins (recombinant GST-tagged MDM2, biotinylated p53 peptide) (Homo sapiens, UniProt Q00987). In words: HTRF assay of inhibition of the p53-MDM2 interaction. It counts as binding. The settings on record: 0.02% BSA. As for the experimental part: The ability of the compounds to inhibit the interaction between p53 and MDM2 proteins was measured by an HTRF (homogeneous time-resolved fluorescence) assay in which recombinant GST-tagged MDM2 binds to a peptide that resembles the MDM2-interacting region of p53 (Lane et al.), Binding of GST-MDM2 protein and p53-peptide (biotinylated on its N-terminal end) is registered by the FRET (fluorescence resonance energy transfer) between Europium (Eu)-labeled ant-GST antibody and streptavidin-conjugated Allophycocyanin (APC).
interaction between p53 and MDM2 proteins (recombinant GST-tagged MDM2, biotinylated p53 peptide), sequence (Q00987 whole entry): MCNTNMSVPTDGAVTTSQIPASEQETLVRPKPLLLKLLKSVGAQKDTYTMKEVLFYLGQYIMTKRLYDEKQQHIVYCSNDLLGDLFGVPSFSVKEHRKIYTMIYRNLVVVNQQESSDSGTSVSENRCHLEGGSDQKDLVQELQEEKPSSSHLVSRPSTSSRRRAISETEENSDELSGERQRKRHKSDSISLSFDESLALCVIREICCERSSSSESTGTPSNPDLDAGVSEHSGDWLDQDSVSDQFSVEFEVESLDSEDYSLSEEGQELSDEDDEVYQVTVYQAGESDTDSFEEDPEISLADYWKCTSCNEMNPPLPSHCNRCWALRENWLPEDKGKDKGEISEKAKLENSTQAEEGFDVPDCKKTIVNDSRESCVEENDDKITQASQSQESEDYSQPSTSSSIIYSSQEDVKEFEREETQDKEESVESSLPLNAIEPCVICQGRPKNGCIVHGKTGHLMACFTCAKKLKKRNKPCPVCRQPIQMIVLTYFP
[…] Add 10 uL diluted compounds (1:5 dilution in reaction buffer) to each well, mix by shaking. Add 20 uL biotinylated p53 peptide (180 nM working solution) in reaction buffer to each well and mix on shaker. Incubate at 37° C. for 1 h. Add 20 uL streptavidin-APC and Eu-anti-GST antibody mixture (6 nM Eu-anti-GST and 60 nM streptavidin-APC working solution) in TBS buffer with 0.2% BSA, shake at room temperature for 30 minutes and read using a TRF-capable plate reader at 665 and 615 nm (Victor 5, Perkin ElmerWallac). If not specified, the reagents were purchased from Sigma Chemical Co.
As for `C=Cc1ccccc1C1=CC(=O)C[C@@H](c2cccc(Cl)c2)[C@]12C(=O)Nc1cc(Cl)ccc12` (racemic) [Example 44 (Compound A), rac-(1R,6S)-6′-chloro-6-(3-chlorophenyl)-2-(2-ethylenephenyl)spiro[2-cyclohexene-1,3′-[3H]indole]-2′,4(1′H)-dione], the IC50 (in general, the concentration at which inhibition is half-maximal) amounted to 1.39 µM.

`O=C1C[C@@H](c2cccc(Cl)c2)[C@@]2(C=C1c1cc(F)ccc1O)C(=O)Nc1cc(Cl)ccc12` (racemic) [Example 17, rac-(1R,6S)-6′-chloro-6-(3-chlorophenyl)-3-(5-fluoro-2-hydroxyphenyl)spiro[2-cyclohexene-1,3′-[3H]indole]-2′,4(1′H)-dione]: the IC50 came to 1.66 µM.

With `Cc1ccc(F)cc1C1=C[C@@]2(C(=O)Nc3cc(Cl)ccc32)[C@H](c2cccc(Cl)c2)C[C@@H]1O` (racemic) [Example 5, rac-(1R, 4S, 6S)-6′-chloro-6-(3-chlorophenyl)-3-(5-fluoro-2-methylphenyl)-4-hydroxyspiro[2-cyclohexene-1,3′-[3H]indol]-2′(1′H)-one], the concentration for half-maximal inhibition (IC50) was 1.6 µM.

With `C/C=C/C1=CC(=O)C[C@@H](c2cccc(Cl)c2)[C@]12C(=O)Nc1cc(Cl)ccc12` (racemic) [Example 10 (Compound B), rac-(1S,6S)-6′-chloro-6-(3-chlorophenyl)-2-(E)-(1-propenyl)spiro[2-cyclohexene-1,3′-[3H]indole]-2′,4(1′H)-dione], the half-inhibitory concentration (IC50) worked out at 5.9 µM.

As to `O=C1C[C@@H](c2cccc(Cl)c2)[C@@]2(C=C1c1ccc(F)cc1O)C(=O)Nc1cc(Cl)ccc12` (racemic) [Example 18, rac-(1R,6S)-6′-chloro-6-(3-chlorophenyl)-3-(4-fluoro-2-hydroxyphenyl)spiro[2-cyclohexene-1,3′-[3H]indole]-2′,4(1′H)-dione], the IC50 came to 2.99 µM.
